Results as given in publication PMC8769072, “Proteome‐scale mapping of binding sites in the unstructured regions of the human proteome” (Molecular Systems Biology, 2022).

System: immobilized GST-tagged bait protein domains
Experiment: ProP-PD phage selections (HD2 P8, sublibraries, HD2 P3, HD1 P8) with NGS and confidence level
Format: binding, human
Details: for p3_HD2 confidence / p3_HD2 mean counts / p3_HD2 count proportions: HD2 P3 library
[1] = HD2 library, bait CALM1_EF-hand__P0DP23_2_149, benchmark motif instance, in_library_check FALSE, in_library_coverage 0
[2] = bait PEX14_Pex14__O75381_16_84, HD2 library, whether the validated benchmark motif instance was recovered in the ProP-PD selection (TRUE/FALSE)
[3] = bait KPNA4_Arm (O00629 68-487), HD2 library, benchmark motif instance recovered in the ProP-PD selection (TRUE/FALSE)
[4] = library HD2, bait EPS15_EH__P42566_121_215, whether the validated benchmark motif instance was recovered in the ProP-PD selection (TRUE/FALSE)
[5] = bait ANKRA2_Ank__Q9H9E1_142_313, library HD2, benchmarking set of validated motif instances, TRUE = motif instance recovered in the ProP-PD selection
[6] = bait MAP1LC3A_ATG8 (Q9H492 2-121), HD2 library, benchmark motif instance recovered in the ProP-PD selection (TRUE/FALSE)
[7] = bait MAP1LC3B_ATG8 (Q9GZQ8 2-119), HD2 library, benchmark motif instance recovered in the ProP-PD selection (TRUE/FALSE)
[8] = bait PABP-B_PABP__P11940_544_623, HD2 library, confidence level (1-4) of best matching selected peptide
[9] = bait PABP-B_PABP__P11940_544_623, HD2 library, specificity score of best matching selected peptide
[10] = bait PABP-B_PABP__P11940_544_623, HD2 library, whether the validated benchmark motif instance was recovered in the ProP-PD selection (TRUE/FALSE)
[11] = bait NEDD4_WW_4 (P46934 890-928), HD2 library, benchmark motif instance recovered in the ProP-PD selection (TRUE/FALSE)
[12] = bait CALM1_EF-hand__P0DP23_2_149, library HD2, benchmarking set of validated motif instances, TRUE = motif instance recovered in the ProP-PD selection
[13] = HD2 library, bait TLN1_PTB__Q9Y490_309_401, known motif instance of the benchmarking set found (TRUE) or not found (FALSE) among selected peptides
[14] = bait CRK_SH3_1_P46108_124_198, confidence level (4 = High, 2-3 = Medium, 1 = Low)
[15] = bait CRK_SH3_1_P46108_124_198, mean NGS counts over replicate selections
[16] = bait CRK_SH3_1_P46108_124_198, mean proportion of NGS counts
[17] = library HD2, bait VASP_EVH1__P50552_1_114, validated benchmark motif instance, in_library_check TRUE, TRUE/FALSE = instance recovered in ProP-PD selection
[18] = HD2 library, bait TNKS_TANK-peptide-bind__O95271_174_649, known motif instance of the benchmarking set found (TRUE) or not found (FALSE) among selected peptides
[19] = bait CRK_SH3_1_P46108_124_198, library HD2, benchmarking set of validated motif instances, TRUE = motif instance recovered in the ProP-PD selection

QDLLELKSVIKLQAWWRGTMIRR,DLLELKSVIKLQAWWRGTMIRREIGGFKMPK [IQCG 397-411]
motif_found [1]: FALSE

QDYNETDWSQEFISEVTDP
motif_found [2]: FALSE

QELLSVGSKRRRTGGSLRGN
motif_found [3]: FALSE

QELQEEKPSSSHLVSRPST
motif_found (library HD2, bait USP7_MATH-TRAF__Q93009_53_206, validated benchmark motif instance, in_library_check TRUE, TRUE/FALSE = instance recovered in ProP-PD selection): FALSE

QENMRSSPNPFITGLTRTN
motif_found [4]: FALSE

QEPPESVRPSAPPAELEVQA
motif_found (library HD2, bait TSG101_UEV__Q99816_1_145, validated benchmark motif instance, in_library_check TRUE, TRUE/FALSE = instance recovered in ProP-PD selection): FALSE

QERPLTNKLKRKRRPTSGLHPE
motif_found [3]: FALSE

QFSLYTSPSLPNISLGLQATVTVT [HDAC5]
motif_found [5]: TRUE

QGSWVELHFSNNGNGG
motif_found [6]: TRUE
best_confidence (bait MAP1LC3A_ATG8 (Q9H492 2-121), HD2 library, confidence level (1-4) of best matching peptide): 3
best_specificity (bait MAP1LC3A_ATG8 (Q9H492 2-121), HD2 library, specificity score of best matching peptide): 1
motif_found [7]: TRUE
best_confidence (bait MAP1LC3B_ATG8 (Q9GZQ8 2-119), HD2 library, confidence level (1-4) of best matching peptide): 3
best_specificity (bait MAP1LC3B_ATG8 (Q9GZQ8 2-119), HD2 library, specificity score of best matching peptide): 1

QLSPNAKEFVYNGGGS
best_confidence [8]: 4
best_specificity [9]: 1
motif_found [10]: TRUE

QMPADTPPPAYLPPEDPM
motif_found [11]: FALSE

QQGTSDAWVDQFTRPVNTS
motif_found [2]: FALSE

QQHEGPSLNPFDEEDLSSP
motif_found [4]: FALSE

QQKQRQKHFNRQIPAAASLIQTAWRCYAAENPDSSTWKIYIRKAPRSHTLLSPSPKPKKSVVVKKKKFKLDKDNGVTPGEKMLTVPHITCDPPEERRLDHFSVDGYDSSVRKSPTLLEVSMPHFMRTNSFAEDLDLEGETLLTPITHISQLREHHRATIKVIRRMQYFVAKKKFQQARKP [KCNQ1]
motif_found [12]: FALSE

QQQLNWKQDSNPLYKSAITTTI
motif_found [13]: FALSE

QQVPAPPLPAKKNLPT
p3_HD2 confidence [14]: 4
p3_HD2 mean counts [15]: 120.7
p3_HD2 count proportions [16]: 0.00436

QRTNPSPTNPFSSDLQKTF
motif_found [4]: FALSE

QSGSGGIFPPPPDDDIYDG
motif_found [17]: FALSE

QSKPLVDIDLISFDDD
HD2_nc confidence (bait CLTC_Clathrin-propeller__Q00610_1_364, HD2 P8 nucleocytoplasmic sublibrary, confidence level (4 = High, 2-3 = Medium, 1 = Low)): 4
HD2_nc mean counts (bait CLTC_Clathrin-propeller__Q00610_1_364, HD2 P8 nucleocytoplasmic sublibrary, mean NGS counts over replicate selections): 25.67
HD2_nc count proportions (bait CLTC_Clathrin-propeller__Q00610_1_364, HD2 P8 nucleocytoplasmic sublibrary, mean proportion of NGS counts): 0.0005729

RARAKWDTANNPLYKEATSTFT
motif_found [13]: FALSE

RCTSPGGSYGHLSIGTMSPSLG
motif_found (bait SUFU_SUFU__Q9UMX1_1_484, HD2 library, whether the validated benchmark motif instance was recovered in the ProP-PD selection (TRUE/FALSE)): FALSE

RCVNSRQIRPPPDGSDCTSDLA [RAD54L 690-697]
motif_found (HD2 library, bait TNKS_TANK-peptide-bind__O95271_174_649, benchmark motif instance, in_library_check FALSE, in_library_coverage 0): FALSE

RDAEAHPWLSDYDDLTSAT
motif_found [2]: FALSE

REMEEKSALIIQKHWRGYRERKNFHQQRQSL [IQCB1 391-407]
motif_found [1]: FALSE

RGRGDGQE
motif_found [18]: FALSE

RHLPPPLPSKTPPPPP
p3_HD2 confidence [14]: 3
p3_HD2 mean counts [15]: 27.0
p3_HD2 count proportions [16]: 0.0009618

RKKWKQSVRLISLCQRLSR,KWKQSVRLISLCQRLS [DAPK1]
motif_found [12]: FALSE

RKNTKSMNFDNPVYRKTTEEED [LRP8 860-867]
motif_found (HD2 library, bait TLN1_PTB__Q9Y490_309_401, benchmark motif instance, in_library_check FALSE, in_library_coverage 0): FALSE

RKQEEVSAIIIQRAYRRYLLKQKVKKVSSIY [SCN2A 1909-1925]
motif_found [1]: FALSE

RKQYRKVLYCVVIIQKNYRAFLLRRRFLHLKKAA [MYO10 766-785]
motif_found [1]: FALSE

RKRAKV
motif_found [3]: FALSE

RKTLVSMPPLPGLDLKGSESPE [RFX5]
motif_found [5]: FALSE

RLRHALWPSLPDLHRVLGQYLRDT
motif_found (library HD2, bait ANKRA2_Ank__Q9H9E1_142_313, motif instance NOT in library (in_library_check FALSE, in_library_coverage 0)): FALSE

RMATAEDLPLPPPPALEDL
motif_found [17]: FALSE

RMSQIKRLLSE
motif_found (bait PTK2_Focal-AT__Q05397_891_1050, HD2 library, whether the validated benchmark motif instance was recovered in the ProP-PD selection (TRUE/FALSE)): FALSE

RPPDDAVFDIITDEELCQIQ
motif_found [6]: FALSE

RRKWQKTGNAVRAIGRLSSM [MYLK]
motif_found [12]: FALSE

RRMPAANLIQAAWRLYSTD [KCNQ4 338-356]
motif_found [1]: FALSE

RRRFLHLKKAAIVFQKQLRGQIARRVYRQLLAEK [MYO10 789-808]
motif_found [1]: FALSE

RRRWKLSFSIVSLCNHLTR [DAPK2]
motif_found [12]: FALSE

RSEIGHSPPPAYTPMS
motif_found [11]: TRUE
best_confidence (bait NEDD4_WW_4 (P46934 890-928), HD2 library, confidence level (1-4) of best matching peptide): 2
best_specificity (bait NEDD4_WW_4 (P46934 890-928), HD2 library, specificity score of best matching peptide): 1

RVTENNLQTPNPTASEFIPKGGSTSRL
motif_found [10]: FALSE

SAEPRPRTRSNPEGAEDRAVGA
motif_found [18]: FALSE

SALSPNAKEFIFPNMQ
best_confidence [8]: 3
best_specificity [9]: 1
motif_found [10]: TRUE

SARILKEYNPFEEEDEEEE
motif_found [4]: FALSE

SASYPPYQATGPPNTSYMPGMPGGI [TSG101]
motif_found (bait CEP55_EABR__Q53EZ4_160_217, library HD2, benchmarking set of validated motif instances, TRUE = motif instance recovered in the ProP-PD selection): FALSE

SDLFPAPPQIPSRPVRIPPG [DNM2]
motif_found [19]: FALSE

SDRTAAPGNPFRAKSEESE
motif_found [4]: FALSE

SEEGDNESRSAGDGTDWEKEDQ
motif_found [18]: FALSE

SETMSMPQLTVPASGS
HD2 confidence (bait ANKRA2_Ank__Q9H9E1_142_313, library HD2 P8): 4

SFGGGFADF [EPS15]
motif_found (bait AP2B1_adaptin__P63010_700_937, library HD2, benchmarking set of validated motif instances, TRUE = motif instance recovered in the ProP-PD selection): TRUE

SFLSRRAARTIQTAFRQYRMNKNFERLRSSA [IQSEC2]
motif_found [12]: FALSE

SFNPDAQVFVPIGSQD
best_confidence [8]: 3
best_specificity [9]: 1
motif_found [10]: TRUE

SGETQTTSPAIPWAAF
HD confidence (bait AP2B1_adaptin__P63010_700_937, HD1 P8 library, confidence level (4 = High, 2-3 = Medium, 1 = Low)): 4
HD mean counts (bait AP2B1_adaptin__P63010_700_937, HD1 P8 library, mean NGS counts over replicate selections): 10.25
HD count proportions (bait AP2B1_adaptin__P63010_700_937, HD1 P8 library, mean proportion of NGS counts): 0.003472

SGGSDEAPPKPSRPGYPSPR [PTK2]
motif_found [19]: FALSE

SHLGTYGVFTNAAFDPSP----
motif_found [13]: FALSE

SIDAHTFDFETIPHPNIEQ
motif_found [6]: FALSE
motif_found [7]: FALSE

SILEQTDMEAVEALVCMSSWGQRS
motif_found (bait SIN3A_PAH__Q96ST3_295_383, HD2 library, whether the validated benchmark motif instance was recovered in the ProP-PD selection (TRUE/FALSE)): FALSE

SKSSNASWPPEFQPGVPWKGIQNIDPES
motif_found [10]: FALSE

SKYITTIAGVMTLS
motif_found (library HD2, bait CALM1_EF-hand__P0DP23_2_149, motif instance NOT in library (in_library_check FALSE, in_library_coverage 0)): FALSE

SLEQSERRRRLLELQKSKRLDYVNHARRLA,ERRRRLLELQKSKRLDYVNHARR,PRLSQYKSKYSSLEQSERRRRLLELQKSKRLDYVNHARR,EQSERRRRLLELQKSKRLDYVNHARR (UniProt O95149 42-64, looked up, fragment) [SNUPN 42-64]
motif_found (HD2 library, bait KPNB1_Heat_1_Q14974_1_485, benchmark motif instance, in_library_check FALSE, in_library_coverage 0): FALSE

SLMTDEPGLDNPAYVSSAEDGQ
motif_found [13]: FALSE

SLWTALSNFSMPSFPG
HD2-1mM_CaCl confidence (bait CALM1 EF-hand (P0DP23, 2-149), HD2 library selection with 1mM_CaCl, confidence level (4 = High, 2 or 3 = Medium, 1 = Low)): 4
HD2 confidence (bait CALM1 EF-hand (P0DP23, 2-149), HD2 library selection, confidence level (4 = High, 2 or 3 = Medium, 1 = Low)): 4

SNGSSINWPPEFHPGVPWKGLQNIDPEN
motif_found [10]: FALSE
